Test [1] deals with HL-60. The test is described as follows: Antiproliferative activity against human HL-60 cells assessed as cell growth inhibition incubated for 24 hrs in presence of SAHA by CCK-8 assay. It counts as functional, cell-based. As to conditions: HL-60, 24 h.
Test [2] concerns MDA-MB-231. The test is described as follows: Induction of apoptosis in human MDA-MB-231 cells assessed as late apoptotic cells at 5 uM incubated for 48 hrs by Annexin V-FITC/PI staining based flow cytometry relative to control. The class given is functional.
In test [3] the test system is MDA-MB-231. As to the kind of experiment: Induction of apoptosis in human MDA-MB-231 cells assessed as late apoptotic cells at 10 uM incubated for 48 hrs by Annexin V-FITC/PI staining based flow cytometry relative to control. It counts as functional. A general note: A flow cytometer gives signals particle by particle.
Test [4] has as its system HEL. As to the kind of experiment: Antiproliferative activity against human HEL cells assessed as cell growth inhibition incubated for 24 hrs in presence of SAHA by CCK-8 assay. It counts as functional, cell-based. (In general: Formazan colour is commonly taken as a measure of viable cells.)
Test [5] concerns K562. The test is described as follows: Antiproliferative activity against human K562 cells assessed as cell growth inhibition incubated for 24 hrs by CCK-8 assay. As to conditions: K562, 24 h. The class given is functional, cell-based.
The test system of test [6] is Candida albicans. The test is described as follows: Synergistic antifungal activity against Candida albicans 0304103 infected in ICR mouse assessed as decrease in kidney fungal load at 20 mg/kg, ip for 5 consecutive days. As to conditions: time 5.0 day. It counts as functional, organism-based.
Test [7] relates to MDA-MB-231. As to the kind of experiment: Induction of apoptosis in human MDA-MB-231 cells assessed as late apoptotic cells at 2.5 uM incubated for 48 hrs by Annexin V-FITC/PI staining based flow cytometry relative to control. It counts as functional.
The test system of test [8] is Candida albicans. The test is described as follows: Synergistic antifungal activity against azole-resistant Candida albicans 0304103 assessed as fungal growth inhibition measured after 48 hrs in presence of FLC and SAHA by CLSI based micro-dilution broth method. The class given is functional. For orientation: In broth dilution the organism is exposed to a series of concentrations in liquid medium.

The subject of test [9] is Candida albicans. The test is described as follows: Synergistic antifungal activity against azole-resistant Candida albicans 0304103 assessed as fungal growth inhibition at 32 ug/ml measured upto 24 hrs in presence of FLC by absorbance based assay. The class given is functional, organism-based. As to conditions: dose 32.0 µg/ml.
Test [10] deals with Candida albicans. It counts as functional, 0304103. As to conditions: time 48 hrs.
Description: Synergistic antifungal activity against azole-resistant Candida albicans 0304103 assessed as fractional inhibitory concentration index measured after 48 hrs in presence of FLC by CLSI based micro-dilution broth method
Test [11] concerns HEL. As to the kind of experiment: Antiproliferative activity against human HEL cells assessed as cell growth inhibition incubated for 24 hrs by CCK-8 assay. The class given is functional, cell-based.
Test [12] concerns Cryptococcus neoformans. The test is described as follows: Antifungal activity against Cryptococcus neoformans H99 assessed as fungal growth inhibition measured after 48 hrs by CLSI based micro-dilution broth method. It counts as functional.
Test [13] deals with MDA-MB-231. The test is described as follows: Antiproliferative activity against human MDA-MB-231 cells assessed as cell growth inhibition incubated for 24 hrs in presence of SAHA by CCK-8 assay. It counts as functional, cell-based. As to conditions: MDA-MB-231, 24 h.
For test [14], the system named is MDA-MB-231. The test is described as follows: Antiproliferative activity against human MDA-MB-231 cells assessed as cell growth inhibition incubated for 24 hrs by CCK-8 assay. The class given is functional, cell-based. As to conditions: MDA-MB-231, 24 h.
Test [15] deals with MDA-MB-231. The test is described as follows: Antitumor activity against human MDA-MB-231 cells xenografted in Balb/c nude mouse assessed as tumor growth inhibition at 10 mg/kg, ip qd for 21 consecutive days relative to control. The class given is functional. As to conditions: MDA-MB-231, 480 h, time 20 day, read-out: TGI.
Test [16] deals with Candida albicans. The test is described as follows: Synergistic antifungal activity against azole-resistant Candida albicans 0304103 assessed as fungal growth inhibition measured after 48 hrs in presence of SAHA by CLSI based micro-dilution broth method. It counts as functional.
The subject of test [17] is K562. As to the kind of experiment: Antiproliferative activity against human K562 cells assessed as cell growth inhibition incubated for 24 hrs in presence of SAHA by CCK-8 assay. It counts as functional, cell-based. As to conditions: K562, 24 h.
For test [18], the system named is HL-60. As to the kind of experiment: Antiproliferative activity against human HL-60 cells assessed as cell growth inhibition incubated for 24 hrs by CCK-8 assay. It counts as functional, cell-based. As to conditions: HL-60, 24 h.
Test [19] deals with Candida albicans. As to the kind of experiment: Synergistic antifungal activity against azole-resistant Candida albicans 0304103 assessed as fractional inhibitory concentration index measured after 48 hrs in presence of FLC and SAHA by CLSI based micro-dilution broth method. It counts as functional.
The test system of test [20] is Cryptococcus neoformans. As to the kind of experiment: Antifungal activity against Cryptococcus neoformans H99 assessed as fungal growth inhibition measured after 48 hrs in presence of SAHA by CLSI based micro-dilution broth method. It counts as functional.
The subject of test [21] is Candida albicans. As to the kind of experiment: microbe, parasite or virus in culture. It counts as functional. As to conditions: 0304103, time 48 hrs.
Description: Synergistic antifungal activity against azole-resistant Candida albicans 0304103 assessed as fungal growth inhibition measured after 48 hrs by CLSI based micro-dilution broth method
Test [22] relates to Candida albicans. As to the kind of experiment: microbe, parasite or virus in culture. The class given is functional. As to conditions: 0304103, time 48 hrs. This is another data set of the same source.
Description: Synergistic antifungal activity against azole-resistant Candida albicans 0304103 assessed as fungal growth inhibition measured after 48 hrs in presence of FLC by CLSI based micro-dilution broth method

The source of these data is ChEMBL document CHEMBL5316308, “BET-HDAC Dual Inhibitors for Combinational Treatment of Breast Cancer and Concurrent Candidiasis” (J Med Chem, 2023).

The structures appear in SMILES notation. ≈ marks a conversion by molar mass, not a printed value. Calls of active or inactive are those of the source. The calls are words filed in the database; no cut-off is given here.

For orientation: IC50 means the concentration at which inhibition is half-maximal. `COc1cc2c(cc1-c1c(C)noc1C)[nH]c1nc(C)nc(Nc3cc(C4CC4)nn3C)c12`: the IC50 in the test with HL-60 [1] amounted to 1.4 µM; in the test on HEL [4] it was 0.4 µM; in the test with K562 [5], 2.3 µM; in the test with HEL [11], 0.6 µM; in the test with MDA-MB-231 [13] it was 1.6 µM; in the test with MDA-MB-231 [14] it was 3.8 µM. In addition, the figures for the IC50 with K562 [17] and in the test on HL-60 [18] were 0.00021 µM and 1.5 µM, respectively. In addition, the results for the Activity in the test on MDA-MB-231 [2], in the test on MDA-MB-231 [3] and in the test on MDA-MB-231 [7] were 9.99%, 16.93% and 8.25%, respectively. Also, the result in the test with Candida albicans [6] and with Candida albicans [9] was inactive. Besides, the MIC80 in the test with Candida albicans [8] was 1 mg/L; in the test on Cryptococcus neoformans [12], 32 mg/L (≈ 72.2 µM); in the test on Candida albicans [16], greater than 64 mg/L; in the test with Cryptococcus neoformans [20] it was 64 mg/L; in the test on Candida albicans [21], greater than 64 mg/L; in the test on Candida albicans [22] it was 16 mg/L (≈ 36.1 µM). For the same molecule, the “fractional inhibitory concentration index (FICI)” value with Candida albicans [10] worked out at 1.2; with Candida albicans [19], 0.26. Also, the inhibition in vivo at 10 mg/kg with MDA-MB-231 [15] came out at 22%.
